Assay results reported in patent US12150995B2, “IRAK degraders and uses thereof” (Kymera Therapeutics, Inc., priority 2020, dated 2024).

biological target: T1, IRAK4 (Homo sapiens, UniProt Q9NWZ3); experiment: IRAK4 MSD Degradation in OCI-LY10; assay type: cell-based; conditions: OCI-LY10 cells, Meso Scale Discovery, incubated 4 to 24 hours
T1 construct: endogenous in cells; host or cells: OCI-LY10
T1 sequence (Q9NWZ3 1-460): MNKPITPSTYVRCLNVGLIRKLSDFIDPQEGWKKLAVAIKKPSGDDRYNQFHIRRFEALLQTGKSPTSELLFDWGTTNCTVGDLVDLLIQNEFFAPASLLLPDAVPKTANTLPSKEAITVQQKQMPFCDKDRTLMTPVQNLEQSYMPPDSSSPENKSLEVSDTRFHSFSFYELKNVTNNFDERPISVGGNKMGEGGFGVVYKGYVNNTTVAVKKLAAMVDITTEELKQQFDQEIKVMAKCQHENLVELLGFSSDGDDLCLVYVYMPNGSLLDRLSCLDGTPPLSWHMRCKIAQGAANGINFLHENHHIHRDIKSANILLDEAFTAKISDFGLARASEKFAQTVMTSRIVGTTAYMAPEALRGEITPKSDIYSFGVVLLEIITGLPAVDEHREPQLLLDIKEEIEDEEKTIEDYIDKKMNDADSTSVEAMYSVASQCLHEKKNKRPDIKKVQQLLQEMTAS
How it was run: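 IRAK4 degradation was quantified by Meso Scale electrochemiluminescence (anti-IRAK4 capture and detection antibodies) in lysates of treated OCI-LY10 cells. Compounds were dosed at 8 concentrations (1:3 dilutions, top 1 to 10 μM) for 4 to 24 h; DC50 derived by three-parameter logistic fitting.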

SMILES | DC50 [nM]
COc1cc2nn([C@H]3C[C@@H](CN4CC(c5cccc6c5n(C)c(=O)n6C5CCC(=O)NC5=O)C4)C3)cc2cc1NC(=O)c1cccc(C(F)(F)F)n1 (stereo partly shown) [I-50, N-[2-[3-[[3-[1-(2,6-dioxo-3-piperidyl)-3-methyl-2-oxo-benzimidazol-4-yl]azetidin-1-yl]methyl]cyclobutyl]-6-methoxy-indazol-5-yl]-6-(trifluoromethyl)pyridine-2-carboxamide] | 10 to 50
COc1cc2nn([C@H]3CC[C@H](CN(C)C4CCN(c5c(C)ccc6c5n(C)c(=O)n6C5CCC(=O)NC5=O)CC4)CC3)cc2cc1NC(=O)c1cccc(C(F)(F)F)n1 (stereo partly shown) [I-40] | 10 to 50
COc1cc2nn([C@H]3CC[C@H](CN4CCC(c5cccc6c5n(C)c(=O)n6C5CCC(=O)NC5=O)CC4)CC3)cc2cc1NC(=O)c1cc(F)cc(C(F)(F)F)c1 (stereo partly shown) [I-132] | < 10
CN(CCCCNc1cccc2c1C(=O)N(C1CCC(=O)NC1=O)C2=O)C[C@H]1CC[C@H](c2nc3cc(C(C)(C)O)c(NC(=O)c4cccc(C#N)n4)cc3s2)CC1 (stereo partly shown) [I-445] | < 10
CN(C[C@H]1CC[C@H](n2cc3cc(NC(=O)c4cccc(C(F)(F)F)n4)ccc3n2)CC1)C1CCN(c2cccc3c(N4CCC(=O)NC4=O)cncc23)CC1 [I-98] | > 200
CC(C)(O)c1cc2nn([C@H]3CC[C@H](CN4CCC(c5ccc6c(N7CCC(=O)NC7=O)cncc6c5)CC4)CC3)cc2cc1NC(=O)c1cccc(C(F)(F)F)n1 [I-64] | < 10
Cn1c(=O)n(C2CCC(=O)NC2=O)c2cccc(N3CCN(C[C@H]4CC[C@H](n5cc6cc(NC(=O)c7cccc(C(F)(F)F)n7)c(S(C)(=O)=O)cc6n5)CC4)CC3)c21 (stereo partly shown) [I-422] | < 10
CC(C)Nc1cc(-c2ccc3cc(C#N)cnn23)ncc1C(=O)N[C@H]1CC[C@H](CN2CCC(OCC#Cc3cccc4c3n(C)c(=O)n4C3CCC(=O)NC3=O)CC2)CC1 (stereo partly shown) [I-199] | 10 to 50
COc1cc2nn([C@H]3CC[C@H](CN4CCC(c5cccc6c(N7CCC(=O)NC7=O)cncc56)CC4)CC3)cc2cc1NC(=O)c1cc(F)cc(C(F)(F)F)c1 [I-123] | 10 to 50
COc1cc2nc([C@H]3CC[C@H](C(=O)N4CCN(CCCNc5cccc6c5C(=O)N(C5CCC(=O)NC5=O)C6=O)CC4)CC3)sc2cc1NC(=O)c1cccc(C(F)(F)F)n1 (stereo partly shown) [I-466] | 50 to 100
CN(CCCN(C)[C@H]1C[C@H](Nc2cccc3c2C(=O)N(C2CCC(=O)NC2=O)C3=O)C1)C[C@H]1CC[C@H](n2cc3cc(NC(=O)c4cccc(C(F)(F)F)n4)c(C(C)(C)O)cc3n2)CC1 (stereo partly shown) [I-263] | 10 to 50
CC(C)Nc1cc(-n2ccc3cc(C#N)cnc32)ncc1C(=O)N1CCC(CN(C)C2CCN(c3cccc4c3n(C)c(=O)n4C3CCC(=O)NC3=O)CC2)CC1 (stereo not shown) [I-115] | > 200
Cc1cc2nn([C@H]3CC[C@H](CN4CCN(c5cccc6c(N7CCC(=O)NC7=O)cncc56)CC4)CC3)cc2cc1NC(=O)c1cccc(C(F)(F)F)n1 [I-261] | 10 to 50
CC(C)Nc1cc(-n2ccc3cc(F)cnc32)ncc1C(=O)N[C@H]1CC[C@H](CN2CCN(c3ccc4c(c3)n(C)c(=O)n4C3CCC(=O)NC3=O)CC2)CC1 (stereo partly shown) [I-267] | > 200
COc1cc2nn([C@H]3C[C@H](CN4CCC(c5cccc6c(N7CCC(=O)NC7=O)cncc56)CC4)C3)cc2cc1NC(=O)c1cccc(C(F)(F)F)n1 [I-91] | 10 to 50
COc1cc2nn([C@H]3CC[C@H](CN(C)C4CCN(c5cccc6c5n(C)c(=O)n6C5CCC(=O)NC5=O)CC4)CC3)cc2cc1-n1cc(-c2cccc(C(F)(F)F)n2)nn1 (stereo partly shown) [I-100] | > 200
COc1cc2nn([C@H]3CC[C@H](CN4CCC(c5cc(F)cc6c5n(C)c(=O)n6C5CCC(=O)NC5=O)CC4)CC3)cc2cc1NC(=O)c1cccc(C(F)(F)F)n1 (stereo partly shown) [I-52] | < 10
O=C1CCN(c2cncc3c(C4CCN(C[C@H]5CC[C@H](n6cc7cc(NC(=O)c8cccc(C(F)(F)F)n8)c(Cl)cc7n6)CC5)CC4)cccc23)C(=O)N1 [I-370] | 10 to 50
Cn1c(=O)n(C2CCC(=O)NC2=O)c2cccc(N3CCN(C[C@H]4CC[C@H](n5cc6cc(NC(=O)c7cccc(C(F)(F)F)n7)c(C7CC7)cc6n5)CC4)CC3)c21 (stereo partly shown) [I-296] | 10 to 50
Cc1ccc2c(c1C1CCN(C[C@H]3CC[C@H](n4cc5cc(NC(=O)c6cccc(C(F)(F)F)n6)ccc5n4)CC3)CC1)n(C)c(=O)n2C1CCC(=O)NC1=O (stereo partly shown) [I-99] | < 10
Cc1cc2nn([C@H]3CC[C@H](CN4CCN(c5cccc6c5n(C)c(=O)n6C5CCC(=O)NC5=O)C[C@@H]4C)CC3)cc2cc1NC(=O)c1cccc(C(F)(F)F)n1 (stereo partly shown) [I-301] | < 10
CC(C)(O)c1cc2nc([C@H]3CC[C@H](CN4CCO[C@@H](CCCNc5cccc6c5C(=O)N(C5CCC(=O)NC5=O)C6=O)C4)CC3)sc2cc1NC(=O)c1cncc(C#N)c1 (stereo partly shown) [I-454] | > 200
CC(C)Nc1c(C(=O)N[C@H]2CC[C@H](CN3CCC(c4cccc5c4n(C)c(=O)n5C4CCC(=O)NC4=O)CC3)CC2)cnc2sc(-c3cncs3)cc12 (stereo partly shown) [I-417] | < 10

SMILES | DC50 [nM]
CC(C)Nc1c(C(=O)N[C@H]2CC[C@H](CN3CCC(c4cccc5c(N6CCC(=O)NC6=O)cncc45)CC3)CC2)cnc2c1Oc1ccc(C#N)cc1O2 [I-310] | > 200
Cn1c(=O)n(C2CCC(=O)NC2=O)c2cccc(N3CCN(C[C@H]4CC[C@H](n5cc6cc(NC(=O)c7cccc(C(F)(F)F)n7)c(Cl)cc6n5)CC4)CC3)c21 (stereo partly shown) [I-360] | 10 to 50
CN(C[C@H]1C[C@H](n2cc3cc(NC(=O)c4cccc(C(F)(F)F)n4)c(C(F)F)cc3n2)C1)C1CCN(c2cccc3c2n(C)c(=O)n3C2CCC(=O)NC2=O)CC1 (stereo partly shown) [I-139] | 10 to 50
CN(C[C@H]1CC[C@H](n2cc3cc(NC(=O)c4cccc(C(F)(F)F)n4)ncc3n2)CC1)C1CCN(c2cccc3c2n(C)c(=O)n3C2CCC(=O)NC2=O)CC1 (stereo partly shown) [I-238] | < 10
Cn1c(=O)n(C2CCC(=O)NC2=O)c2cccc(C3CCN(C[C@H]4CC[C@H](N5Cc6cc(NC(=O)c7cccc(C(F)(F)F)n7)c(N7C[C@H]8C[C@@H]7CO8)cc6C5=O)CC4)CC3)c21 (stereo partly shown) [I-29] | < 10
CCOc1cc2nn([C@H]3CC[C@H](CN4CCN(c5cccc6c5n(C)c(=O)n6C5CCC(=O)NC5=O)CC4)CC3)cc2cc1NC(=O)c1cccc(C(F)(F)F)n1 (stereo partly shown) [I-294] | 10 to 50
COc1ccc2c(c1C1CCN(C[C@H]3C[C@H](n4cc5cc(NC(=O)c6cccc(C(F)(F)F)n6)c(Cl)cc5n4)C3)CC1)n(C)c(=O)n2C1CCC(=O)NC1=O (stereo partly shown) [I-145] | 10 to 50
CN(CCCNc1cccc2c1C(=O)N(C1CCC(=O)NC1=O)C2=O)C(=O)[C@H]1CC[C@H](c2nc3cc(C(C)(C)O)c(NC(=O)c4cccc(C(F)(F)F)n4)cc3s2)CC1 (stereo partly shown) [I-489] | > 200
Cc1cc2nn([C@H]3CC[C@H](CN4CCC(c5cccc6c5n(C)c(=O)n6C5CCC(=O)N(C)C5=O)CC4)CC3)cc2cc1NC(=O)c1cccc(C(F)(F)F)n1 (stereo partly shown) [I-403] | > 200
CN(C[C@H]1CC[C@H](n2cc3cc(NC(=O)c4cccc(C(F)(F)F)n4)ccc3n2)CC1)C1CCN(c2cccc3c2n(C)c(=O)n3C2CCC(=O)NC2=O)CC1 (stereo partly shown) [I-58] | < 10
COc1cc2nn([C@H]3CC[C@H](CN4CCN(c5ccc(N6CCC(=O)NC6=O)cn5)CC4)CC3)cc2cc1NC(=O)c1cccc(C(F)(F)F)n1 [I-313] | > 200
COc1cc2nn(C3CCN(C[C@H]4CC[C@H](c5cccc6c5n(C)c(=O)n6C5CCC(=O)NC5=O)CC4)CC3)cc2cc1NC(=O)c1cccc(C(F)(F)F)n1 (stereo partly shown) [I-237] | 10 to 50
COc1cc2nn([C@H]3CC[C@H](CN(C)C4CCN(c5cccc6c(N7CCC(=O)NC7=O)cncc56)CC4)CC3)cc2cc1NC(=O)c1cncc(Cl)c1 [I-117] | 50 to 100
COc1cc2nn([C@H]3CC[C@H](CN4C[C@@H]5C[C@H]4CN5c4cccc5c4n(C)c(=O)n5C4CCC(=O)NC4=O)CC3)cc2cc1NC(=O)c1cccc(C(F)(F)F)n1 (stereo partly shown) [I-168] | < 10
COc1cc2nn([C@H]3CC[C@H](CN(C)C4CCN(c5cccc6c5n(C)c(=O)n6C5CCC(=O)NC5=O)CC4)CC3)cc2cc1NC(=O)c1cncc(Cl)c1 (stereo partly shown) [I-80] | < 10
COc1cc2nn([C@H]3CC[C@H](CN4CCN(c5cccc6c(N7CCC(=O)NC7=O)cncc56)CC4)CC3)cc2cc1NC(=O)c1cncc(C(F)(F)F)n1 [I-299] | < 10
Cn1c(=O)n(C2CCC(=O)NC2=O)c2cccc(N3CCN(C[C@H]4CC[C@H](n5cc6cc(NC(=O)c7cccc(C(F)(F)F)n7)ccc6n5)CC4)C(C)(C)C3)c21 (stereo partly shown) [I-324] | 10 to 50
COc1cc2nn([C@H]3C[C@H](CN4CCC(c5c(C)ccc6c5n(C)c(=O)n6C5CCC(=O)NC5=O)CC4)C3)cc2cc1NC(=O)c1cccc(C(F)(F)F)n1 (stereo partly shown) [I-137] | < 10
COc1ccc2c(c1C1=CCN(C[C@H]3CC[C@H](n4cc5cc(NC(=O)c6cccc(C(F)(F)F)n6)ccc5n4)CC3)CC1)n(C)c(=O)n2C1CCC(=O)NC1=O (stereo partly shown) [I-355] | < 10
Cn1c(=O)n(C2CCC(=O)NC2=O)c2cccc(C3CCN(C[C@H]4CC[C@H](n5cc6cc(NC(=O)c7cnn8cccnc78)c(F)cc6n5)CC4)CC3)c21 (stereo partly shown) [I-63] | < 10
C[C@@H]1CN(c2cccc3c(N4CCC(=O)NC4=O)cncc23)CCN1C[C@H]1CC[C@H](n2cc3cc(NC(=O)c4cccc(C(F)(F)F)n4)c(C(C)(C)O)cc3n2)CC1 [I-230] | < 10
CC(C)Nc1cc(-n2ccc3cc(C#N)cnc32)ncc1C(=O)N[C@H]1CC[C@H](CN2CCC(c3cccc4c(N5CCC(=O)NC5=O)cncc34)CC2)CC1 [I-190] | < 10
COc1cc2nn([C@H]3CC[C@H](CN4CCC(c5ccc6c(c5C)n(C)c(=O)n6C5CCC(=O)NC5=O)CC4)CC3)cc2cc1NC(=O)c1cccc(C(F)(F)F)n1 (stereo partly shown) [I-173] | < 10
